Read-outs that look alike come from different tables or passages of the source.
Columns and labels:
[1] = tested on: Botrytis cinerea; test: Botrytis cinerea (gray mould), PDB microtiter plate, visual after 72 hrs; type: cell-based; conditions: for inhibition at 0.625 ppm: rate 0.625 ppm
[2] = tested on: Monographella nivalis (syn. Microdochium nivale, Fusarium nivale); test: Monographella nivalis (snow mould, foot rot of cereals), PDB microtiter plate, visual after 72 hrs; type: cell-based
[3] = tested on: Puccinia recondita f. sp. tritici; test: Puccinia recondita f. sp. tritici / wheat / leaf disc curative (brown rust); type: in vivo; conditions: foliar, compared to untreated control leaf disks, read-out: disease control
Description: Puccinia recondita f. sp. tritici/Wheat/Leaf Disc Curative (Brown Rust) Wheat leaf segments cv. Kanzler are placed on agar in multiwell plates (24-well format). The leaf segments are inoculated with a spore suspension of the fungus. Plates were stored in darkness at 19° C. and 75% rh. The formulated test compound diluted in water was applied 1 day after inoculation.

[4] = tested on: Puccinia recondita f. sp. tritici; test: Puccinia recondita f. sp. tritici / wheat / leaf disc preventative (brown rust); type: in vivo; conditions: foliar, compared to untreated control leaf disks, read-out: disease control
Source text: Puccinia recondita f. sp. tritici/Wheat/Leaf Disc Preventative (Brown Rust) Wheat leaf segments cv. Kanzler were placed on agar in multiwell plates (24-well format) and sprayed with the formulated test compound diluted in water. The leaf disks were inoculated with a spore suspension of the fungus 1 day after application.

[5] = tested on: Blumeria graminis f. sp. tritici (Erysiphe graminis f. sp. tritici); test: Blumeria graminis f. sp. tritici / wheat / leaf disc preventative (powdery mildew on wheat); type: in vivo; conditions: foliar, compared to untreated control leaf disks, read-out: disease control
In short: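 Preventative leaf-disc test: compound (200 ppm) was sprayed onto cv. Kanzler wheat segments, which were dusted with conidia from infected plants 1 day after application. After incubation at 20° C and 60% rh, disease control relative to untreated segments was rated 6-8 days after application.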

[6] = tested on: Pyrenophora teres; test: Pyrenophora teres / barley / leaf disc preventative (net blotch); type: in vivo; conditions: foliar, compared to untreated control leaf disks, read-out: disease control
Source text: Pyrenophora teres/Barley/Leaf Disc Preventative (Net Blotch) Barley leaf segments cv. Hasso were placed on agar in a multiwell plate (24-well format) and sprayed with the formulated test compound diluted in water. The leaf segments were inoculated with a spore suspension of the fungus 2 days after application.

[7] = applied alone, rate 0.15625 ppm
[8] = Monographella nivalis, applied alone, 0.0625 ppm
[9] = Monographella nivalis, applied alone
[10] = Botrytis cinerea, alone, rate 1.25 ppm
[11] = Botrytis cinerea, alone, rate 2.5 ppm, read-out: Activity (%)
[12] = Monographella nivalis, applied alone, rate 0.3125 ppm
[13] = Monographella nivalis, applied alone, rate 0.625 ppm
[14] = Monographella nivalis, applied alone, rate 1.25 ppm
[15] = Monographella nivalis, applied alone, rate 2.5 ppm

N#Cc1c(Cl)c(Cl)c(Cl)c(C#N)c1Cl [Chlorotalonil] was tested, and the “Activity (%)” value ([1]; alone, rate 0.0625 ppm) was 0%, the “Activity (%)” value ([1]; alone, rate 0.125 ppm) was 0% and the “Activity (%)” value ([1]; alone, rate 0.25 ppm) was 20%.

In the case of [Cu+2].[OH-].[OH-] [Copper hydroxide], the “Activity (%)” value ([1]; alone, rate 1.25 ppm) is reported as 0%, the “Activity (%)” value ([1]; alone, rate 2.5 ppm) is reported as 0% and the “Activity (%)” value ([1]; alone, rate 5 ppm) is reported as 0%. The “Activity (%)” value [2, 7] was 0%, the “Activity (%)” value ([2]; applied alone, rate 0.3125 ppm) was 0% and the “Activity (%)” value ([2]; applied alone, rate 0.625 ppm) was 0%. The “Activity (%)” value ([2]; applied alone, rate 1.25 ppm) was 0%, the “Activity (%)” value ([2]; applied alone, rate 2.5 ppm) was 0% and the “Activity (%)” value ([2]; applied alone, rate 5 ppm) was 0%.

In the case of N#Cc1c(Cl)c(Cl)c(Cl)c(C#N)c1Cl [Chlorothalonil], the inhibition at 0.03125 ppm ([2]; Monographella nivalis, applied alone, 0.03125 ppm) is reported as 0%, the inhibition at 0.0625 ppm [2, 8] is reported as 20% and the inhibition at 0.125 ppm [2, 9] is reported as 70%.

CON=C(C(=O)OC)c1ccccc1CON=C(C)c1cccc(C(F)(F)F)c1 [Trifloxystrobin] gave an inhibition at 0.0125 ppm ([1]; Botrytis cinerea, alone, rate 0.0125 ppm) of 0%, an inhibition at 0.025 ppm ([1]; Botrytis cinerea, alone, rate 0.025 ppm) of 20% and an inhibition at 0.05 ppm ([1]; Botrytis cinerea, alone, rate 0.05 ppm) of 50%. It also gave an inhibition at 0.1 ppm ([1]; Botrytis cinerea, alone, rate 0.1 ppm) of 50%, an inhibition at 0.5 ppm ([1]; Botrytis cinerea, alone, rate 0.5 ppm) of 50% and an inhibition at 1 ppm ([1]; Botrytis cinerea, alone, rate 1 ppm) of 50%. It also gave an inhibition at 2 ppm ([1]; Botrytis cinerea, alone, rate 2 ppm) of 50%.

CCOC(=O)C1CC(=O)C(=C(O)C2CC2)C(=O)C1 (stereo not shown) [Trinexapacethyl] gave an inhibition at 1.25 ppm [1, 10] of 0%, an inhibition at 2.5 ppm [1, 11] of 0% and an inhibition at 5 ppm ([1]; Botrytis cinerea, alone, rate 5 ppm, read-out: Activity (%)) of 0%. For the same molecule, the inhibition at 10 ppm ([1]; Botrytis cinerea, alone, rate 10 ppm, read-out: Activity (%)) was 0%, the inhibition at 20 ppm ([1]; Botrytis cinerea, alone, rate 20 ppm, read-out: Activity (%)) was 0% and the inhibition at 0.625 ppm ([2]; Monographella nivalis, applied alone, 0.625 ppm) was 0%. It also gave an inhibition at 1.25 ppm ([2]; Monographella nivalis, applied alone, 1.25 ppm) of 0%, an inhibition at 2.5 ppm ([2]; Monographella nivalis, applied alone, 2.5 ppm) of 0% and an inhibition at 5 ppm ([2]; Monographella nivalis, applied alone, 5 ppm) of 0%. It also gave an inhibition at 0.12625 ppm ([2]; Monographella nivalis, applied alone, rate 0.12625 ppm) of 0%, an inhibition at 0.3125 ppm [2, 12] of 0% and an inhibition at 0.625 ppm [2, 13] of 0%. The inhibition at 1.25 ppm [2, 14] was 0% and the inhibition at 2.5 ppm [2, 15] was 0%.

CON(C(=O)c1cn(C)nc1C(F)F)C(C)Cc1c(Cl)cc(Cl)cc1Cl (stereo not shown) [(VI), 3-(difluoromethyl)-N-methoxy-1-methyl-N-[1-methyl-2-(2,4,6-trichlorophenyl)ethyl]-1H-pyrazole-4-carboxamide, reference compound] gave an inhibition at 0.0078125 ppm ([1]; Botrytis cinerea, alone, rate 0.0078125 ppm) of 20%, an inhibition at 0.015625 ppm ([1]; Botrytis cinerea, alone, rate 0.015625 ppm) of 50% and an inhibition at 0.03125 ppm ([1]; Botrytis cinerea, alone, rate 0.03125 ppm, read-out: Activity (%)) of 70%. For the same molecule, the inhibition at 0.0625 ppm ([1]; Botrytis cinerea, alone, rate 0.0625 ppm, read-out: Activity (%)) was 70%, the inhibition at 0.0625 ppm [2, 8] was 0% and the inhibition at 0.125 ppm [2, 9] was 50%.

CP(=O)(O)CCC(N)C(=O)O (stereo not shown) [Glufosinate] was tested, and the inhibition at 2.5 ppm ([1]; Botrytis cinerea, read-out: Activity (%), alone, rate 2.5 ppm) was 0%, the inhibition at 5 ppm ([1]; Botrytis cinerea, read-out: Activity (%), alone, rate 5 ppm) was 0% and the inhibition at 10 ppm ([1]; Botrytis cinerea, read-out: Activity (%), alone, rate 10 ppm) was 0%. For the same molecule, the inhibition at 20 ppm ([1]; Botrytis cinerea, read-out: Activity (%), alone, rate 20 ppm) was 0%, the inhibition at 0.3125 ppm [2, 12] was 0% and the inhibition at 0.625 ppm [2, 13] was 0%. It also gave an inhibition at 1.25 ppm [2, 14] of 0%, an inhibition at 2.5 ppm [2, 15] of 0% and an inhibition at 5 ppm ([2]; Monographella nivalis, single compound, rate 5 ppm) of 0%.

With COCCOCc1nc(C(F)(F)F)ccc1C(=O)C1=C(O)C2CCC(C2)C1=O (stereo not shown) [Bicyclopyrone] the “Activity (%)” value ([1]; alone, rate 1.25 ppm) was 0%, the “Activity (%)” value ([1]; alone, rate 2.5 ppm) was 0% and the “Activity (%)” value ([1]; alone, rate 5 ppm) was 0%. The “Activity (%)” value ([2]; applied alone, rate 0.078125 ppm) was 0%, the “Activity (%)” value [2, 7] was 0% and the “Activity (%)” value ([2]; applied alone, rate 0.3125 ppm) was 0%.

CN1COCN(Cc2cnc(Cl)s2)/C1=N\[N+](=O)[O-] [Thiamethoxam] gave an inhibition at 0.625 ppm ([1]; Botrytis cinerea, alone) of 0%, an inhibition at 1.25 ppm [1, 10] of 0% and an inhibition at 2.5 ppm [1, 11] of 0%. It also gave an inhibition at 0.3125 ppm [2, 12] of 0%, an inhibition at 0.625 ppm [2, 13] of 0% and an inhibition at 2.5 ppm [2, 15] of 0%. The inhibition at 5 ppm ([2]; Monographella nivalis, applied alone, rate 5 ppm) was 0%.

COC(=O)Nc1nc2ccccc2[nH]1 [Carbendazim] showed an inhibition at 0.015625 ppm ([2]; Monographella nivalis, applied alone, rate 0.015625 ppm) of 0%, an inhibition at 0.03125 ppm ([2]; Monographella nivalis, applied alone, rate 0.03125 ppm) of 0% and an inhibition at 0.0625 ppm ([2]; Monographella nivalis, applied alone, rate 0.0625 ppm) of 0%.

For CC12CC1(C)C(=O)N(c1cc(Cl)cc(Cl)c1)C2=O (stereo not shown) [Procymidone], the inhibition at 1.25 ppm [1, 10] was 0%, the inhibition at 2.5 ppm [1, 11] was 50% and the inhibition at 0.3125 ppm ([1]; Botrytis cinerea, single compound, rate 0.3125 ppm) was 0%. The inhibition at 0.625 ppm ([1]; Botrytis cinerea, single compound) was 0% and the inhibition at 1.25 ppm ([1]; Botrytis cinerea, single compound, rate 1.25 ppm) was 0%.

With [Mn+2].[O-2] [Manganese oxide] the “Activity (%)” value [2, 7] was 0%, the “Activity (%)” value ([2]; applied alone, rate 0.3125 ppm) was 0% and the “Activity (%)” value ([2]; applied alone, rate 0.625 ppm) was 0%. For the same molecule, the “Activity (%)” value ([2]; applied alone, rate 1.25 ppm) was 0% and the “Activity (%)” value ([2]; applied alone, rate 2.5 ppm) was 0%.

CCc1ccccc1COc1nc(C)c(/N=C/N(C)CC)cc1Br [Q.285] was tested, and the pest or weed control at 200 ppm [3] was at least 50%, the pest or weed control at 200 ppm [4] was at least 50% and the pest or weed control at 200 ppm [5] was at least 50%. The pest or weed control at 200 ppm [6] was at least 50%.

Molecule CCN(C)/C=N/c1cc(Br)c(OCCCCc2ccc(Br)cc2)nc1C [Q.047] has a pest or weed control at 200 ppm [3] of at least 50%, a pest or weed control at 200 ppm [4] of at least 50% and a pest or weed control at 200 ppm [5] of at least 50%. It also gave a pest or weed control at 200 ppm [6] of at least 50%.

— patent publication US9326513B2, “Fungicidal compositions” (Syngenta Participations AG, priority 2011, dated 2016)
